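Method: 48-hour compound exposure of cells in 96-well plates, five concentrations, linear interpolation of endpoints. Abbreviation: GI50, concentration required for 50% inhibition of growth. The concentration for full growth arrest is given as TGI.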 Some results are limits rather than exact numbers.

Test systems include SW-620 colon; PC-3 prostate; HS 578T breast; T-47D breast; M14 melanoma; HCT-15 colon; MCF7 breast; RXF 393 renal; SNB-75 CNS; IGROV1 ovarian.
What all share (assay): NCI anticancer screen, dose series, 48 h

As for `C[C@@H]1CN2[C@H]3[C@@H]1CC[C@]31CCC(=O)O[C@]1(C)[C@@H]1CC[C@H]3CCC=C3[C@@H]12`, the GI50 in the assay on SW-620 colon, in the assay with PC-3 prostate, in the assay with HS 578T breast, in the assay on T-47D breast, in the assay on M14 melanoma and with HCT-15 colon was over 70 µM throughout. For the same compound, the GI50 with MCF7 breast is over 70 µM; with RXF 393 renal it was over 70 µM; with SNB-75 CNS, 35.3 µM; in the assay with IGROV1 ovarian, over 70 µM. Moreover, the TGI with SW-620 colon, in the assay with PC-3 prostate, in the assay on HS 578T breast, with T-47D breast, with M14 melanoma and with HCT-15 colon was over 70 µM in each case. The TGI with MCF7 breast, in the assay on RXF 393 renal, in the assay with SNB-75 CNS and with IGROV1 ovarian was over 70 µM in each case.

As to `O=C(CC1(O)C(=O)Nc2c(Cl)ccc(Cl)c21)c1ccc(C2CC2)cc1` (centres undefined), the GI50 with SW-620 colon was 0.29 µM; in the assay on PC-3 prostate, 1.38 µM; in the assay with HS 578T breast, 1.83 µM; in the assay on T-47D breast it was 1.56 µM; in the assay with M14 melanoma, 0.422 µM; in the assay on HCT-15 colon, 0.185 µM. Moreover, the GI50 in the assay on MCF7 breast was 0.322 µM; in the assay with RXF 393 renal, 0.632 µM; in the assay with SNB-75 CNS, 1.99 µM; with IGROV1 ovarian, 1.5 µM. The TGI in the assay with SW-620 colon was 13 µM; in the assay on PC-3 prostate it was 16.6 µM; with HS 578T breast, 8.58 µM; with T-47D breast, 27.1 µM; in the assay with M14 melanoma, 3.25 µM; in the assay with HCT-15 colon, 14.3 µM. In addition, the TGI in the assay on MCF7 breast stood at 14.5 µM; in the assay on RXF 393 renal, 2.64 µM; with SNB-75 CNS, 9.33 µM; in the assay on IGROV1 ovarian, 18.2 µM.

Consider `C[C@@H](Oc1cc(-c2cnn(C3CC4(CCCNC4)C3)c2)cnc1N)c1c(Cl)ccc(F)c1Cl` (some centres undefined), for which the GI50 with SW-620 colon is 0.597 µM; with PC-3 prostate, 1.25 µM; in the assay with HS 578T breast it was 1.63 µM; in the assay with T-47D breast it was 1.61 µM; with M14 melanoma, 1.25 µM; with HCT-15 colon, 1.3 µM. The GI50 was 0.363 µM with MCF7 breast, 1.28 µM in the assay with RXF 393 renal, 1.64 µM in the assay with SNB-75 CNS and 2.99 µM in the assay with IGROV1 ovarian. Further, the TGI came out at 2.36 µM in the assay with SW-620 colon; 6.83 µM in the assay on PC-3 prostate; 4.47 µM in the assay with HS 578T breast; 3.42 µM with T-47D breast; 2.66 µM with M14 melanoma; 3.16 µM with HCT-15 colon. Besides, the TGI in the assay with MCF7 breast stood at 1.85 µM; in the assay with RXF 393 renal it was 2.62 µM; in the assay on SNB-75 CNS it was 3.96 µM; with IGROV1 ovarian, 13.6 µM.

In the case of `Cc1cccnc1CNC1CC(NCc2ncccc2C)CC(NCc2ncccc2C)C1` (centres undefined), the GI50 was 2.04 µM in the assay with SW-620 colon; 2.3 µM in the assay with PC-3 prostate; 3.39 µM with HS 578T breast; 1.94 µM in the assay on T-47D breast; 1.96 µM with M14 melanoma; 4.05 µM with HCT-15 colon. Besides, the GI50 with MCF7 breast is 2.39 µM; with RXF 393 renal, 1.92 µM; with SNB-75 CNS it was 2.21 µM; in the assay on IGROV1 ovarian it was 3.89 µM. The TGI with SW-620 colon stood at 5.8 µM; in the assay on PC-3 prostate it was 4.52 µM; with HS 578T breast, 16.2 µM; in the assay on T-47D breast, 3.89 µM; in the assay with M14 melanoma, 4.35 µM; with HCT-15 colon, 13.3 µM. Also, the TGI in the assay on MCF7 breast amounted to 5.21 µM; in the assay on RXF 393 renal, 3.9 µM; in the assay with SNB-75 CNS, 4.32 µM; in the assay with IGROV1 ovarian, 40.3 µM.

As for `CN(C)CCOc1nc2ccccc2c2c1-c1ccc(Cl)cc1C2=O`, the GI50 was 0.34 µM in the assay on SW-620 colon; 1.34 µM in the assay on PC-3 prostate; 0.728 µM in the assay on HS 578T breast; 1.53 µM in the assay on T-47D breast; 1.12 µM with M14 melanoma; 0.464 µM in the assay with HCT-15 colon. For the same compound, the GI50 in the assay on MCF7 breast is 0.324 µM; with RXF 393 renal, 1.07 µM; in the assay on SNB-75 CNS, 1.22 µM; in the assay with IGROV1 ovarian it was 0.444 µM. Moreover, the TGI came out at 1.53 µM in the assay on SW-620 colon; 7.69 µM in the assay with PC-3 prostate; 3.59 µM in the assay on HS 578T breast; 4.55 µM with T-47D breast; 2.72 µM in the assay on M14 melanoma; 1.92 µM with HCT-15 colon. The TGI amounted to 1.39 µM with MCF7 breast, 2.55 µM in the assay on RXF 393 renal, 2.62 µM in the assay with SNB-75 CNS and 1.73 µM in the assay with IGROV1 ovarian.

On to `CS(=O)(=O)c1nc(Cl)c(Cl)c(C#N)c1Cl`, for which the TGI in the assay on SW-620 colon was 3.13 µM; with PC-3 prostate, 11.6 µM; with HS 578T breast, over 58.7 µM; with T-47D breast, 4.83 µM; in the assay on M14 melanoma it was 3.64 µM; in the assay with HCT-15 colon it was 3.5 µM. For the same compound, the TGI came to 13.2 µM in the assay on MCF7 breast, 3.07 µM in the assay on RXF 393 renal, 26.9 µM in the assay on SNB-75 CNS and 14.1 µM with IGROV1 ovarian.

For the compound `CC(=O)OCC(=O)C1(O)C(C)CC2C3C=C(C)C4=Cc5c(cnn5-c5ccccc5)CC4(C)C3C(O)CC21C` (centres undefined), the GI50 with SW-620 colon was 1.7 µM; in the assay on PC-3 prostate, 1.69 µM; with HS 578T breast it was 1.17 µM; with T-47D breast, 2.63 µM; in the assay on M14 melanoma, 1.76 µM; with HCT-15 colon it was 1.15 µM. The GI50 with MCF7 breast is 1.47 µM; in the assay with RXF 393 renal, 0.781 µM; with SNB-75 CNS it was 1.89 µM; with IGROV1 ovarian it was 1.99 µM. In addition, the TGI in the assay with SW-620 colon worked out at 3.42 µM; with PC-3 prostate, 5.83 µM; in the assay on HS 578T breast, 4.75 µM; in the assay on T-47D breast it was 9.39 µM; with M14 melanoma, 3.69 µM; in the assay on HCT-15 colon, 2.54 µM. Moreover, the TGI in the assay with MCF7 breast came to 5.22 µM; with RXF 393 renal it was 2.39 µM; in the assay with SNB-75 CNS, 5.92 µM; with IGROV1 ovarian, 6.48 µM.

Take `c1cnc2c(c1)Nc1cnncc1S2`: the TGI in the assay on SW-620 colon, in the assay with PC-3 prostate, in the assay with HS 578T breast, in the assay on T-47D breast, in the assay on M14 melanoma and in the assay with HCT-15 colon was over 100 µM each time. In addition, the TGI with MCF7 breast is over 100 µM; with RXF 393 renal it was over 100 µM; in the assay on SNB-75 CNS, 97.8 µM; with IGROV1 ovarian it was over 100 µM.

In the case of `COc1ccc(-n2sc(=O)n(Cc3ccc(COC(=O)C(C)c4ccc(CC(C)C)cc4)cc3)c2=O)cc1` (centres undefined), the GI50 in the assay on SW-620 colon is 0.9 µM; in the assay on PC-3 prostate, 5.63 µM; in the assay with HS 578T breast, 4.77 µM; with T-47D breast, 1.32 µM; in the assay on M14 melanoma, 2.6 µM; in the assay with HCT-15 colon, 1.1 µM. The GI50 is 1.82 µM with MCF7 breast, 1.27 µM in the assay on RXF 393 renal, 5.95 µM in the assay on SNB-75 CNS and 1.4 µM in the assay with IGROV1 ovarian. Besides, the TGI in the assay on SW-620 colon was found to be 1.82 µM; in the assay on PC-3 prostate, 12.8 µM; in the assay with HS 578T breast, 13.8 µM; in the assay on T-47D breast, 5.54 µM; in the assay with M14 melanoma, 9.45 µM; with HCT-15 colon, 2.86 µM. Further, the TGI with MCF7 breast was 9.54 µM; in the assay with RXF 393 renal, 3.79 µM; in the assay on SNB-75 CNS it was 12.2 µM; in the assay on IGROV1 ovarian, 4.74 µM.

For `C=C1C(=O)OC2CC3(C)OC3C3OC3C3=CC(OC3=O)C12` (centres undefined), the GI50 in the assay on SW-620 colon was 1.35 µM; in the assay with PC-3 prostate it was 15.9 µM; with HS 578T breast it was 19.3 µM; in the assay with T-47D breast it was 1.17 µM; in the assay with M14 melanoma, 8.75 µM; in the assay on HCT-15 colon, 2.4 µM. The GI50 was 6.05 µM in the assay on MCF7 breast, 1.81 µM in the assay with RXF 393 renal, 14.5 µM with SNB-75 CNS and 21.2 µM with IGROV1 ovarian. The TGI in the assay on SW-620 colon amounted to 3.04 µM; in the assay on PC-3 prostate it was 32.9 µM; in the assay with HS 578T breast, 68.7 µM; in the assay with T-47D breast, 4.45 µM; with M14 melanoma, 24.2 µM; in the assay with HCT-15 colon, 6.45 µM. The TGI with MCF7 breast amounted to 27.6 µM; in the assay with RXF 393 renal it was 3.66 µM; with SNB-75 CNS it was 38.6 µM; with IGROV1 ovarian it was 40.7 µM.

Regarding `O=C(NO)c1cnc(N2CCN(S(=O)(=O)c3ccc4ccccc4c3)CC2)nc1`, the GI50 with SW-620 colon is 0.0349 µM; in the assay on PC-3 prostate it was 0.078 µM; in the assay with HS 578T breast, 0.101 µM; in the assay with T-47D breast, 0.0227 µM; with M14 melanoma, 0.0468 µM; in the assay on HCT-15 colon it was 0.069 µM. The GI50 is 0.0369 µM in the assay on MCF7 breast, 0.0399 µM in the assay with RXF 393 renal, 0.0265 µM in the assay on SNB-75 CNS and 0.162 µM in the assay on IGROV1 ovarian. Also, the TGI is over 36 µM with PC-3 prostate; over 47.3 µM in the assay on HS 578T breast; 1.79 µM in the assay with T-47D breast; 5.75 µM with M14 melanoma; 15.6 µM in the assay on HCT-15 colon; over 76 µM in the assay with MCF7 breast. The TGI with RXF 393 renal is 0.208 µM; in the assay on SNB-75 CNS, 10.8 µM; in the assay with IGROV1 ovarian, 0.78 µM.

Regarding `CCc1ccccc1-n1c(N)c(C#N)c(-c2ccc(OC)c(OC)c2)c(C#N)c1=O`, the GI50 in the assay on SW-620 colon was 33.3 µM; in the assay with PC-3 prostate, 15.4 µM; in the assay with HS 578T breast it was 15.5 µM; in the assay on T-47D breast, 27.2 µM; in the assay with M14 melanoma, 19.7 µM; in the assay with HCT-15 colon it was 37.4 µM. The GI50 was 16.9 µM in the assay on MCF7 breast, 16.3 µM with RXF 393 renal, 17.8 µM in the assay with SNB-75 CNS and 19.5 µM in the assay with IGROV1 ovarian. Moreover, the TGI in the assay on SW-620 colon was over 100 µM; with PC-3 prostate, 32.8 µM; in the assay with HS 578T breast, 41.3 µM; with T-47D breast it was over 100 µM; with M14 melanoma, 56 µM; in the assay with HCT-15 colon, over 100 µM. Besides, the TGI with MCF7 breast worked out at 33.5 µM; in the assay on RXF 393 renal, 35.3 µM; in the assay on SNB-75 CNS it was 32.1 µM; in the assay on IGROV1 ovarian, 60 µM.

Source of the values: PubChem BioAssay (NCI).
